Publication PMC6434189, “Peperomin E and its orally bioavailable analog induce oxidative stress-mediated apoptosis of acute myeloid leukemia progenitor cells by targeting thioredoxin reductase” (Redox Biology, 2019)

Tests used:
[1] = test system: KG-1a CD34+ cells; test: KG-1a-Luc CD34+ xenograft in NOD/SCID mice, bioluminescence; assay type: in vivo
Description: Six-week-old female NOD-SCID mice (obtained from the model animal research center of Nanjing University, Nanjing, China) were acclimated for 1 week and housed in groups of five. All animal studies were conducted under the guidelines approved by the Animal Care and Use Committee of the Nanjing University of Chinese Medicine (Nanjing, China). The mice were sublethally irradiated with 2.7 Gy before transplantation.
KG-1a cells tagged with a luciferase reporter gene (KG-1a-Luc) were obtained from Cobioer biotechnology Inc. (Nanjing, Jiangsu, China) and cultured in 90% IMDM supplemented with 10% FBS, 0.05 mM 2-Mercaptoethanol, and 1 μg/mL Puromycin, and grown at 37 °C in a 5% CO2 humidified incubator. CD34 positive cells were enriched (following the 2.3 method) and injected via the tail vein in a final volume of 0.2 mL PBS with 0.5% FBS. For analyzing the luciferase signal, 5 × 10^6 cells KG-1a-Luc cells were used for each recipient animal. Seven days after transplantation, mice with KG-1a-Luc implants were subjected to bioluminescent analysis based on the luciferase signal. Briefly, mice received D-luciferin phosphate solution (100 mg/kg) intravenously 10 min prior to imaging. They were then anesthetized with isoflurane inhalation and imaged using a Xenogen IVIS scanner (PerkinElmer, Waltham, MA, USA). The next day, mice showing successful implantations were randomly divided into the control, DMAPE low dose, DMAPE high dose, and Ara-C treatment groups (n = 5 in each group), which received daily i. g. saline buffer, DMAPE phosphate salt 25 mg/kg, DMAPE phosphate salt 50 mg/kg and Ara-C (50 mg/kg), respectively. The growth of KG-1a-Luc cells was monitored every week by their luciferase signal. Five weeks after the implantation, all mice were sacrificed and their livers, kidneys, and bone marrow were excised for ex vivo bioluminescent imaging. The bioluminescent signal intensity was all quantified using the Living Image software (version 4.2, Carliper Life Science, Inc., Hopkinton, MA, USA) and is presented as photons/second/cm^2/sr (sr denotes steradian).

[2] = parameters: method as in earlier work; conditions: formulated with phosphate acid; cited from earlier work
[3] = parameters: method as in earlier work; conditions: within 24 h; cited from earlier work
[4] = molecular target: T1, NADPH-reduced TrxR1 (Homo sapiens, UniProt Q16881); test: Bio-layer interferometry (BLI) binding assay, TrxR1
T1 construct: purchased Abcam ab204206
T1 sequence (Q16881 1-499 isoform Q16881-5): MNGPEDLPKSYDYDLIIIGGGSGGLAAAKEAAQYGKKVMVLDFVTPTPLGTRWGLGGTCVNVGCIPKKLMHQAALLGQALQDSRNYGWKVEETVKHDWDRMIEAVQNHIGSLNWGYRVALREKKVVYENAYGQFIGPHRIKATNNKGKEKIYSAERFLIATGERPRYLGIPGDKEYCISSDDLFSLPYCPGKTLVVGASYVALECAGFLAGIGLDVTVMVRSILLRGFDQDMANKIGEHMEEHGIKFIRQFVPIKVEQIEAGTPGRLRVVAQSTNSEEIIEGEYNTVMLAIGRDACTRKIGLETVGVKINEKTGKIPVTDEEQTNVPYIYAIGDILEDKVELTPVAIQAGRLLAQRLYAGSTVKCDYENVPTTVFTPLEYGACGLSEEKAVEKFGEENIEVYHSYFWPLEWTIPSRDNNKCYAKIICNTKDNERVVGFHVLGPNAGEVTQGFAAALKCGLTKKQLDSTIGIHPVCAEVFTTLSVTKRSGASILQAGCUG
Description: (§1) The binding kinetics of PepE or PepA to purified recombinant proteins were determined using BLI on an Octet RED 96 system (ForteBio, Shanghai, China) following the manufacturer's protocol. All interaction analyses were performed at 25 °C in PBS with 0.2% DMSO. Purified recombinant proteins (0.9 μM, the TrxR1 full length and TrxR1 protein fragment were pre-reduced by 400 μM of NADPH before test) were pre-labeled with biotin using […] (Abcam) following the manufacturer's instruction. Loading of the Dip and Read Super Streptavidin (SSA) Biosensors (ForteBio) were conducted by exposing biotinylated proteins to biosensor tips for 2 h. The 96-well microplates used in the Octet were filled with 200 μL sample or buffer per well and agitated at 1000 rpm. The loaded biosensors were washed in buffer for 600 s and transferred to wells containing PepE at concentrations of 0.625, 1.25, 2.5, 5, and 10 μM or PepA at concentrations of 1.25, 2.5, 5, 10 and 20 μM, respectively, in the buffer. […] Reference measurements were conducted using the buffer instead of PepE (or PepA). A parallel set of SA unloaded biosensors was prepared to act as a control. The sample-sensorgrams were corrected by subtracting the double reference curve. Kinetic parameters (Kon and Kdis) and affinity (KD) were determined from a global fit to a 1:1 binding model of the data between proteins and PepE using Octet software (ForteBio).

[5] = molecular target: T2, GSS (Homo sapiens, UniProt P48637); test: BLI binding assay, GSS
T2 construct: purchased Abcam
T2 sequence (P48637 1-474): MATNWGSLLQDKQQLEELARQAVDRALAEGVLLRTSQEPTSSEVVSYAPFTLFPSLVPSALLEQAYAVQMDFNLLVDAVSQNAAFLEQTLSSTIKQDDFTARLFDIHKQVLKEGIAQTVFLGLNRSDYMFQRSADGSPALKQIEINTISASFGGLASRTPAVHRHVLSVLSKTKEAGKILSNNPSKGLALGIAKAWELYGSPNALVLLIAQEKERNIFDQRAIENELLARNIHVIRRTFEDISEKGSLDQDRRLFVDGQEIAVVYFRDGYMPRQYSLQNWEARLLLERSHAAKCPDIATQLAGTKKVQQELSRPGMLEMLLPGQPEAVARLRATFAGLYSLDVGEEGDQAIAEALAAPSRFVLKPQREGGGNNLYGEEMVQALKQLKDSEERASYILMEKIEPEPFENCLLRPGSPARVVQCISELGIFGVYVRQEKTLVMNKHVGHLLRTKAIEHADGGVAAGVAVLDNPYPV
Description: as §1

Row | kon [4] | Kd ([4]; NADPH-reduced TrxR1 0.9 μM, 25 °C) | Kd ([4]; Table S3) | koff ([4]; read-out: Kdis) | Kd [5] | kon [5] | koff ([5]; read-out: Kdis) | SMILES | growth and metastasis of AML CD34+ cells in NOD/SCID mice ([1]; 25 mg/kg/d) | luciferase signal in the bone marrow ([1]; 50 mg/kg i.g. daily, week 5, ex vivo imaging) | overall luciferase signal in the liver and kidney, saline vs treated ([1]; 50 mg/kg i.g. daily, week 5, P < 0.001 kidneys, P < 0.01 livers) | luciferase signal intensities compared to the saline-treated mice ([1]; 25 and 50 mg/kg i.g. daily, P < 0.05 at three weeks, P < 0.01 at five weeks) | increased solubility in water compared to PepE [2] | stability in the cell cultural media (without cells) [3]
1 | – | – | – | – | – | – | – | COc1cc(C(c2cc(OC)c3c(c2)OCO3)[C@@H]2COC(=O)[C@H]2CN(C)CCO)cc2c1OCO2 [DMAPE, (2S,3S)-6-Methyl (hydroxyethyl) amino-2,6-dihydropeperomin E] | significantly suppressed | almost no luciferase signal was detected | significantly stronger in the saline-treated group | significantly weaker | more than 1000 fold | stable
2 | 12400 M⁻¹ s⁻¹ | 340 nM | 341 nM | 0.00423 s⁻¹ | 272000 nM | 2740 M⁻¹ s⁻¹ | 0.745 s⁻¹ | C=C1C(=O)OC[C@H]1C(c1cc(OC)c2c(c1)OCO2)c1cc(OC)c2c(c1)OCO2 [PepE, Peperomin E] | – | – | – | – | – | –
